The target of the assay is T1, Prostacyclin Receptors (IP Receptors) of Human Thrombocyte Membranes (Homo sapiens, UniProt P43119).
T1 construct: Thrombocyte membranes are obtained by centrifuging 50 ml human blood; tissue Maco Pharma, Langen; host or cells: human thrombocyte (platelet) membranes prepared from buffy coats
Kind of assay: Binding to prostacyclin receptors (IP receptors) of human thrombocyte membranes, 3H-Iloprost displacement. Particulars: 3 nM 3H-Iloprost, 60 min, room temperature. On the procedure:
B-1. Studies of Binding to Prostacyclin Receptors (IP Receptors) of Human Thrombocyte Membranes
Thrombocyte membranes are obtained by centrifuging 50 ml human blood (Buffy coats with CDP Stabilizer, from Maco Pharma, Langen) for 20 min at 160×g. Remove the supernatant (platelet-rich plasma, PRP) and then centrifuge again at 2000×g for 10 min at room temperature. Resuspend the sediment in 50 mM tris(hydroxymethyl)aminomethane, which has been adjusted to a pH of 7.4 with 1 N hydrochloric acid, and store at −20° C. overnight. On the next day, centrifuge the suspension at 80 000×g and 4° C. for 30 min. Discard the supernatant. Resuspend the sediment in 50 mM tris(hydroxymethyl)aminomethane/hydrochloric acid, 0.25 mM ethylene diamine tetraacetic acid (EDTA), pH 7.4, and then centrifuge once again at 80 000×g and 4° C. for 30 min. Take up the membrane sediment in binding buffer (50 mM tris(hydroxymethyl)-aminomethane/hydrochloric acid, 5 mM magnesium chloride, pH 7.4) and store at −70° C. until the binding test.
For the binding test, incubate 3 nM ^3H-Iloprost (592 GBq/mmol, from AmershamBioscience) for 60 min with 300-1000 μg/ml human thrombocyte membranes per charge (max. 0.2 ml) in the presence of the test substances at room temperature. After stopping, add cold binding buffer to the membranes and wash with 0.1% bovine serum albumin. After adding Ultima Gold Scintillator, quantify the radioactivity bound to the membranes using a scintillation counter. The nonspecific binding is defined as radioactivity in the presence of 1 μM Iloprost (from Cayman Chemical, Ann Arbor) and is as a rule <25% of the bound total radioactivity. The binding data (IC50 values) are determined using the program GraphPad Prism Version 3.02.

The term pIC50 denotes the IC50 on a negative log10 scale, so that one unit is a factor of ten. A low value points to a high IC50.

Each structure is given as a SMILES string. pIC50: −log10 of the molar value.

T1 sequence (P43119 whole entry): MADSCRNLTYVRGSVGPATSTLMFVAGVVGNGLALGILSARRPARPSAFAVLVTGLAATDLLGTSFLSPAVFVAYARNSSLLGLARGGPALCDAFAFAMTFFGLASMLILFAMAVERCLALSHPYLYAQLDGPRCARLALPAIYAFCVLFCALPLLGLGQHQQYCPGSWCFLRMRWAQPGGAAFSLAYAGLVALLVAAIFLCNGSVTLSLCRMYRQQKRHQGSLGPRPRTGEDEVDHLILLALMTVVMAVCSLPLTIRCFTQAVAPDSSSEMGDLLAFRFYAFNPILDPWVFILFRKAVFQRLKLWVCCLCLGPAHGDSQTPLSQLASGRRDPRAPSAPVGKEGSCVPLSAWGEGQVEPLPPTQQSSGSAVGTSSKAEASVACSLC

Regarding `COc1ccc(-c2c(-c3ccccc3)oc(C)c2C(=O)Nc2cccc(OCC(=O)O)c2)cc1` [Example 20], the pIC50 is 6.36. In the case of `COc1ccc(-c2c(-c3ccccc3)oc(C)c2C(=O)O[C@H](C)CCCCC(=O)O)cc1` [Example 21] it was 6.50; in that of `COc1ccc(-c2c(-c3ccccc3)oc(C)c2C(=O)NC(C)CCCCC(=O)O)cc1` (stereo not drawn) [Example 24], 6.32; in that of `COC(=O)CCCCCNC(=O)c1c(C)oc(-c2ccccc2)c1-c1ccc(OC)cc1` [Example 4, Methyl 6-({[4-(4-methoxyphenyl)-2-methyl-5-phenylfuran-3-yl]carbonyl}amino)hexanoater], 6.33. Under `COc1ccc(-c2c(-c3ccccc3)oc(C)c2C(=O)N[C@H](C)CCCCC(=O)O)cc1` [Example 26] stands 6.17; under `CCc1ccc(-c2c(-c3ccccc3)oc(C)c2C(=O)NCCCCCC(=O)O)cc1` [Example 18], 6.86.
